Laboratory results published in patent US7220437B2, “Antiviral and antibacterial activities of extracts from eight plants” (priority 1996, dated 2007).
In brackets after ≈: the same amount, converted by molar mass. Counter-ions that a name gives are not always drawn. Marks after values point to notes of the source that are not given here.

What was measured:
PBMCs [1] = test system: PBMCs
PBMCs [2] = assay: Ex vivo effects on culture induced death of PBMCs of AIDS patients; assay type: cell-based, human; conditions: four AIDS patients; noncytotoxic concentrations
HIV-2 strain GH1 = assay: Anti-HIV-2 cytopathicity in Molt 4 clone 8 cells; assay type: cell-based
HIV-1 strain GH3 = assay: Anti-HIV cytopathicity, acute infection of M8166 cells; assay type: cell-based; conditions: high multiplicity of infection of 0.11424
Salmonella typhimurium = assay: Bacteria growth, tetrazolium-based colorimetry
Staphylococcus aureus = assay: Bacteria growth, tetrazolium-based colorimetry
Klebsiella pneumoniae = assay: Bacteria growth, tetrazolium-based colorimetry
Edwardsiella species = assay: Bacteria growth, tetrazolium-based colorimetry
[3] = MOI 0.018, treatment after 40 mins of virus adsorption
[4] = Salmonella enterica, TYPHIMURIUM
[5] = Edwardsiella, inoculum 10^1 CID50
[6] = Edwardsiella, inoculum 10^2 CID50
[7] = Edwardsiella, inoculum 10^3 CID50

## Nc1ccn([C@H]2CC[C@@H](CO)O2)c(=O)n1 [ddCyd, 2′,3′-dideoxycytidine]
PBMCs [1]
  toxicity towards PBMCs from the healthy person: no toxicity
PBMCs [2]
  accelerated culture induced death of PBMCs from AIDS patients: effective in these patients except one AIDS patient

## OC[C@@H]1CC[C@H](n2cnc3c(O)ncnc32)O1 [ddino, 2′,3′-dideoxyinosine]
PBMCs [2]
  accelerated culture induced death of PBMCs from AIDS patients: effective in these patients except one AIDS patient

## Cc1cn([C@H]2C[C@H](N=[N+]=[N-])[C@@H](CO)O2)c(=O)[nH]c1=O [AZT, 3′-azido-2′,3′-dideoxythymidine]
HIV-2 strain GH1; MOI 0.018, treatment 2 hrs after virus adsorption
  EC50: 0.000001 mg/mL (≈ 0.00374 µM)
HIV-2 strain GH1; [3]
  EC50: <0.0000003* mg/ml
  EC90: 0.3 µg/mL (≈ 1.12 µM)
HIV-1 strain GH3
  cell protection: < 90%

## CC1(C)S[C@@H]2[C@H](NC(=O)Cc3ccccc3)C(=O)N2[C@H]1C(=O)[O-].[Na+] [Penicillin G, sodium penicillin G]
Salmonella typhimurium; inoculum 10^1 CID50
  EC50: 157 to 314 µg/mL
  EC90: 0.157–0.314* mg/ml
Staphylococcus aureus; inoculum 10^1 CID50
  EC50: <0.5 µg/mL
  EC90: <0.5 µg/mL
Staphylococcus aureus; inoculum 10^2 CID50
  EC50: <0.5 µg/mL
  EC90: <0.5 µg/mL
Staphylococcus aureus; inoculum 10^3 CID50
  EC50: 2 µg/mL
  EC90: 2 to 4 µg/mL
Klebsiella pneumoniae; inoculum 10^2 CID50
  EC50: 75 µg/mL
  EC90: 130 µg/mL
Edwardsiella species; inoculum 10^1 CID50
  EC50: 196 to 392 µg/mL
  EC90: 392 µg/mL
Edwardsiella species; inoculum 10^2 CID50
  EC50: 196 to 392 µg/mL
  EC90: 392 to 784 µg/mL
Edwardsiella species; inoculum 10^3 CID50
  EC50: >0.784* mg/ml
  EC90: >784 µg/mL

## [H]/N=C(/N)N[C@H]1[C@H](O)[C@@H](O)[C@H](O[C@@H]2O[C@@H](C)[C@](O)(C=O)[C@H]2O[C@@H]2O[C@@H](CO)[C@H](O)[C@@H](O)[C@@H]2NC)[C@@H](N/C(N)=N\[H])[C@@H]1O [Streptomycin sulfate, streptomycin sulfate]
Salmonella typhimurium; [4]
  EC50: 16 to 32 µg/mL
  EC90: 16 to 32 µg/mL
Salmonella typhimurium; inoculum 10^2 CID50
  EC50: 16 to 32 µg/mL
  EC90: 16 to 32 µg/mL
Salmonella typhimurium; inoculum 10^3 CID50
  EC50: 16 to 32 µg/mL
  EC90: 16 to 32 µg/mL
Staphylococcus aureus; Staphylococcus aureus
  EC50: < 0.4 µg/mL
  EC90: < 0.4 µg/mL
Staphylococcus aureus; inoculum 10^2 CID50
  EC50: <0.4 µg/mL
  EC90: <0.4 µg/mL
Staphylococcus aureus; inoculum 10^3 CID50
  EC50: <0.4 µg/mL
  EC90: <0.4 µg/mL
Klebsiella pneumoniae; Klebsiella pneumoniae
  EC50: < 1 µg/mL
  EC90: < 1 µg/mL
Edwardsiella species; [5]
  EC50: 63 µg/mL
  EC90: 63 to 125 µg/mL
Edwardsiella species; [6]
  EC50: 63 µg/mL
  EC90: 500 µg/mL
Edwardsiella species; [7]
  EC50: > 500 µg/mL
  EC90: > 500 µg/mL
